Source: US20110150974A1, “Agent For Oral Mucosal Administration” (DAIICHI PHARMACEUTICAL CO., LTD., priority 2004, published 2011)
Counter-ions that a name gives are not always drawn.

Legend:
[1] = test system: xerostomia caused by Sjogren's syndrome; settings: oral preparations, cited from earlier work
[2] = Drug distribution to each tissue in rats (oral mucosal vs oral administration); type: in vivo, Rats (male Wistar)
Experimental: Rats (9-week old male Wistar rats, body weight: 172 to 205 g) were fixed at the dorsal position under urethane (1.25 g/kg i.p.) anesthesia. The test preparation was administered, and plasma and tissues (minor salivary glands, stomach, small intestine, liver, kidney) were collected 0.5, 1, 2, 4 and 8 hours later for observation of the condition of the application site of the preparation and measurement of the concentration in each tissue. The surface of the minor salivary glands was rinsed with physiological saline, and contents were removed from the stomach and the small intestine, which were rinsed in physiological saline. Each collected tissue was stored at −40° C. before the measurement. The medicament concentration in each tissue was measured by LC/MS/MS.

[3] = test system: Human Oral Mucosa; assay: Influences of pH and additives on drug absorption from human oral mucosa (gargle test); type: in vivo; settings: healthy volunteers, FIG. 2
Experimental: Healthy volunteers were made to clean their teeth and then gargle with 10 mL of each test solution (Examples 1 to 4) for 2 minutes, the gargles were collected, and then the oral cavity was washed twice with 10 mL of distilled water for 10 seconds. All the mouth wash was added to the test solution after gargling. The amounts of cevimeline hydrochloride in the test solutions before and after the gargling were measured by HPLC, and the difference between the samples was calculated as the amount of absorption to the oral mucosa.

CC1OC2(CS1)CN1CCC2CC1 (racemic) [cevimeline hydrochloride hydrate, (±)-cis-2-methylspiro(1,3-oxathiolane-5,3′-quinuclidine) monohydrochloride monohydrate]
saliva secretion promoting effect ([1]; JP 61-280497 and 06-024981): confirmed
adverse reactions in the digestive system ([1]; may cause): nausea, abdominal pain, and vomiting
mucosal irritancy at the application site ([2]; oral mucosal administration (patch of Example 9)): no mucosal irritancy was observed
drug concentration in the stomach ([2]; oral mucosal administration (patch of Example 9) compared with oral administration, 0.5-8 hours, FIG. 5): lower
drug concentration in the small intestine ([2]; oral mucosal administration (patch of Example 9) compared with oral administration, 0.5-8 hours, FIG. 6): lower
drug concentration in the kidney ([2]; oral mucosal administration (patch of Example 9) compared with oral administration, 0.5-8 hours, FIG. 8): lower
drug concentration in the liver ([2]; oral mucosal administration (patch of Example 9) compared with oral administration, 0.5-8 hours, FIG. 9): lower
plasma concentrations ([2]; oral mucosal administration (patch of Example 9) compared with oral administration, changed less in the initial period, FIG. 10): remained constantly low
concentrations in the minor salivary glands ([2]; oral mucosal administration (patch of Example 9), FIG. 11): markedly high
medicament concentrations in the stomach, small intestine, kidney and liver in the initial period after administration ([2]; oral mucosal administration (patch of Example 9), up to 2 hours): apparently low
amount of absorption to the oral mucosa ([3]; pH 8.0, triethanolamine/hydrochloric acid buffer compared with McIlvaine buffer, gargle 10 mL for 2 minutes): larger
amount absorbed from oral mucosa ([3]; pH 8.0 compared with pH 6.0, gargle): more
oral mucosal absorbability ([3]; triethanolamine concentration of 1.5% compared with 0.3%, pH 8.0, gargle): better
